Assay results published in patent US20070032537A1, “5-Substituted 2h-pyrazole-3-carboxylic acid derivatives as agonists for the acid receptor rup25 for the treatment of dyslipidemia and related diseases” (Arena Pharmaceuticals, Inc., priority 2003, published 2007).
Like-named read-outs stand apart in the source and are kept apart here. Each block holds one molecule with its values, some of them ahead of it.

How the values were obtained:
hRUP25 [1] = molecular target: T1, hRUP25 (Homo sapiens, UniProt Q8TDS4); assay: Flash Plate adenylyl cyclase (cAMP) assay for agonists to hRUP25 in stably transfected CHO cells (clone 46); assay type: cell-based; conditions: read-out: RUP25 (EC50)
Source text: A modified Flash Plate™ Adenylyl Cyclase kit (New England Nuclear; Cat. No. SMP004A) is used for direct identification of candidate compounds as agonists to hRUP25 in accordance with the following protocol:
Stably transfected CHO cells (clone 46) were harvested from flasks via non-enzymatic means. The cells were washed in PBS and resuspended in the manufacturer's Assay Buffer. Live cells were counted using a hemacytometer and Trypan blue exclusion, and the cell concentration was adjusted to 2×10^6 cells/ml. cAMP standards and Detection Buffer (comprising 2 μCi of tracer [^125I]-cAMP (100 μl) to 11 ml Detection Buffer) were prepared and maintained in accordance with the manufacturer's instructions. Candidate compounds identified as per above (if frozen, thawed at room temperature) were added to their respective wells (preferably wells of a 96-well plate) at increasing concentrations (3 μl/well; 12 μM final assay concentration). To these wells, 100,000 cells in 50 μl of Assay Buffer were added and the mixture was then incubated for 30 minutes at room temperature, with gentle shaking. Following the incubation, 100 μl of Detection Buffer was added to each well, followed by incubation for 2-24 hours. Plates were counted in a Wallac MicroBeta™ plate reader using “Prot. #31” (as per manufacturer instructions).

[2] = tested on: adipocyte primary cultures derived from human subcutaneous fat; conditions: read-out: EC50, inhibition of isoproterenol induced lipolysis
hRUP25 [3] = molecular target: T1, hRUP25; assay: cell-based
[4] = tested on: rat epidimal fat derived adipocytes
[5] = tested on: adipocyte primary cultures derived from human subcutaneous fat; assay: cells; conditions: read-out: EC50, inhibition of isoproterenol induced lipolysis

T1 sequence (Q8TDS4 whole entry): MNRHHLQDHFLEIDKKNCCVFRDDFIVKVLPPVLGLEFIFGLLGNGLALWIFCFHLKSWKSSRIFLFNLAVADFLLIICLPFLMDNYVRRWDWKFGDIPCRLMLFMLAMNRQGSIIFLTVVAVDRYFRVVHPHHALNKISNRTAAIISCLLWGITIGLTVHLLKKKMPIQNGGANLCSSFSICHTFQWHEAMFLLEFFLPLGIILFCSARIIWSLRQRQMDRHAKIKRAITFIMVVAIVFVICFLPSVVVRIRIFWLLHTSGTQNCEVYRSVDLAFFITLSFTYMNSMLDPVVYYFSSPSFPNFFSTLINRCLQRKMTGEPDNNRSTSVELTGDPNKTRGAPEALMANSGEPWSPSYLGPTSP

EC50 (hRUP25 [1]): 4.3 µM
SMILES: CSCc1cc(C(=O)O)[nH]n1 [Compound 48, 5-Methylsulfanylmethyl-2H-pyrazole-3-carboxylic acid]

EC50 (hRUP25 [1]): 7.9 µM
SMILES: COCc1cc(C(=O)O)[nH]n1 [Compound 63, 5-Methoxymethyl-2H-pyrazole-3-carboxylic acid]

SMILES: c1cncc(-c2nn[nH]n2)c1 [Compound P-3-T, 3-tetrazole-5-pyridine]
EC50 [2]: 0.218 µM

SMILES: CN1CCCC1c1cccnc1 (stereo not shown) [nicotine]
EC50 (hRUP25 [3]): 9.8 µM

SMILES: O=C(O)c1cccnc1 [nicotinic acid, pyridine-3-carboxylic acid]
inhibition of isoproterenol induced lipolysis ([4]; 10 μM): inhibiting isoproterenol induced lipolysis
dose-dependence of inhibition of isoproterenol induced lipolysis ([4]; increasing concentrations): dose-dependent inhibition
EC50 [5]: 0.716 µM
